Our source for the Emax and DC50 values is patent US11554171B2, “Compounds and methods for the targeted degradation of bromodomain-containing proteins” (Arvinas Operations, Inc., priority 2015, dated 2023).

This assay deals with c-myc in 22RV-1 cells. Kind of assay: Human c-myc ELISA assay. The following applies: Homo sapiens; for Emax: 22Rv1, 18 h, read-out: Degradation of BRD4: Maximum inhibition (%) c-Myc ELISA in 22RV1 cells; for DC50: 22Rv1, read-out: Degradation of BRD4: DC50 (uM) c-Myc ELISA in 22RV1 cells. The assay is classed as cell-based. The procedure, abridged: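 c-myc levels measured by ELISA in RIPA lysates of 22RV-1 cells, calibrated with a 333-0 pg/ml standard curve. Lysates came from cells exposed for 18 h to an 8-point, 1:3 dose series starting at 300 nM or 1 μM final in 0.1% DMSO. Suppression potency given as DC50.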
On the technique in general: An ELISA detects its analyte on a solid surface through an enzyme-linked reagent.

By DC50 is commonly meant the midpoint of the concentration-degradation curve. With `Cc1ncsc1-c1ccc([C@H](C)NC(=O)[C@@H]2C[C@@H](O)CN2C(=O)[C@@H](NC(=O)/C=C/c2cc(F)cc(O[C@@H](C)CNC(=O)C[C@@H]3N=C(c4ccc(Cl)cc4)c4c(sc(C)c4C)-n4c(C)nnc43)c2)C(C)(C)C)cc1` [Example 201], the Emax is 94.1% and the 50% degradation concentration (DC50) is under 0.01 µM.

Turning to `Cc1ncsc1-c1ccc([C@H](C)NC(=O)[C@@H]2C[C@@H](O)CN2C(=O)[C@@H](NC(=O)/C=C/c2cc(F)cc(O[C@H](C)CNC(=O)C[C@@H]3N=C(c4ccc(Cl)cc4)c4c(sc(C)c4C)-n4c(C)nnc43)c2)C(C)(C)C)cc1` [Example 202], the Emax is 94% and the DC50 is under 0.01 µM.

`Cc1ncsc1-c1ccc([C@H](C)NC(=O)[C@@H]2C[C@@H](O)CN2C(=O)[C@@H](NC(=O)CCc2cc(F)cc(O[C@H](C)CNC(=O)C[C@@H]3N=C(c4ccc(Cl)cc4)c4c(sc(C)c4C)-n4c(C)nnc43)c2)C(C)(C)C)cc1` [Example 203]: the Emax was 92% and the DC50 is under 0.01 µM.

With `Cc1ncsc1-c1ccc([C@H](C)NC(=O)[C@@H]2C[C@@H](O)CN2C(=O)[C@@H](NC(=O)Cc2cccc(O[C@H]3C[C@@H](NC(=O)C[C@@H]4N=C(c5ccc(Cl)cc5)c5c(sc(C)c5C)-n5c(C)nnc54)C3)c2)C(C)(C)C)cc1` [Example 204], the Emax turned out to be 88% and the DC50 was 0.01 to 0.1 µM.

As to `Cc1ncsc1-c1ccc([C@H](C)NC(=O)[C@@H]2C[C@@H](O)CN2C(=O)[C@@H](NC(=O)c2cc3cc(O[C@@H](C)CNC(=O)C[C@@H]4N=C(c5ccc(Cl)cc5)c5c(sc(C)c5C)-n5c(C)nnc54)ccc3o2)C(C)(C)C)cc1` [Example 205, (2S,4R)-1-[(2S)-2-[(5-{[(2S)-1-{2-[(9S)-7-(4-chlorophenyl)-4,5,13-trimethyl-3-thia-1,8,11,12-tetraazatricyclo[8.3.0.0^2,^6]trideca-2(6),4,7,10,12-pentaen-9-yl]acetamido}propan-2-yl]oxy}-1-benzofuran-2-yl)formamido]-3,3-dimethylbutanoyl]-4-hydroxy-N-[(1S)-1-[4-(4-methyl-1,3-thiazol-5-yl)phenyl]ethyl]pyrrolidine-2-carboxamide], the Emax was determined as 91% and the DC50 is under 0.01 µM.

Turning to `Cc1ncsc1-c1ccc([C@H](C)NC(=O)[C@@H]2C[C@@H](O)CN2C(=O)[C@@H](NC(=O)c2cc3cc(O[C@H](C)CNC(=O)C[C@@H]4N=C(c5ccc(Cl)cc5)c5c(sc(C)c5C)-n5c(C)nnc54)ccc3o2)C(C)(C)C)cc1` [Example 206, (2S,4R)-1-[(2S)-2-[(5-{[(2R)-1-{2-[(9S)-7-(4-chlorophenyl)-4,5,13-trimethyl-3-thia-1,8,11,12-tetraazatricyclo[8.3.0.0^2,^6]trideca-2(6),4,7,10,12-pentaen-9-yl]acetamido}propan-2-yl]oxy}-1-benzofuran-2-yl)formamido]-3,3-dimethylbutanoyl]-4-hydroxy-N-[(1S)-1-[4-(4-methyl-1,3-thiazol-5-yl)phenyl]ethyl]pyrrolidine-2-carboxamide], the Emax stood at 90% and the DC50 was under 0.01 µM.

For the molecule `Cc1ncsc1-c1ccc([C@H](C)NC(=O)[C@@H]2C[C@@H](O)CN2C(=O)[C@@H](NC(=O)c2cc3cc(O[C@H]4C[C@H](NC(=O)C[C@@H]5N=C(c6ccc(Cl)cc6)c6c(sc(C)c6C)-n6c(C)nnc65)C4)ccc3o2)C(C)(C)C)cc1` [Example 207, (2S,4R)-1-[(2S)-3,3-dimethyl-2-({5-[(1,3trans)-3-{2-[(9S)-7-(4-chlorophenyl)-4,5,13-trimethyl-3-thia-1,8,11,12-tetraazatricyclo[8.3.0.0^2,^6]trideca-2(6),4,7,10,12-pentaen-9-yl]acetamido}cyclobutoxy]-1-benzofuran-2-yl}formamido)butanoyl]-4-hydroxy-N-[(1S)-1-[4-(4-methyl-1,3-thiazol-5-yl)phenyl]ethyl]pyrrolidine-2-carboxamide], the Emax came out at 89.5% and the DC50 is under 0.01 µM.

`Cc1ncsc1-c1ccc([C@H](C)NC(=O)[C@@H]2C[C@@H](O)CN2C(=O)C(C(C)C)n2cc(-c3cc(F)cc(O[C@@H](C)CNC(=O)C[C@@H]4N=C(c5ccc(Cl)cc5)c5c(sc(C)c5C)-n5c(C)nnc54)c3)cn2)cc1` (some centres unmarked) [Example 208]: the Emax came to 92% and the DC50 is under 0.01 µM.

On to `Cc1ncsc1-c1ccc([C@H](C)NC(=O)[C@@H]2C[C@@H](O)CN2C(=O)[C@@H](NC(=O)COc2cc(F)cc(O[C@H]3C[C@@H](NC(=O)C[C@@H]4N=C(c5ccc(Cl)cc5)c5c(sc(C)c5C)-n5c(C)nnc54)C3)c2)C(C)(C)C)cc1` [Example 209], for which the Emax was 90% and the DC50 is under 0.01 µM.

For `Cc1ncsc1-c1ccc([C@H](C)NC(=O)[C@@H]2C[C@@H](O)CN2C(=O)[C@@H](NC(=O)c2cc3ccc(OCCNC(=O)C[C@@H]4N=C(c5ccc(Cl)cc5)c5c(sc(C)c5C)-n5c(C)nnc54)cc3o2)C(C)(C)C)cc1` [Example 210, (2S,4R)-1-[(2S)-2-{[6-(2-{2-[(9S)-7-(4-chlorophenyl)-4,5,13-trimethyl-3-thia-1,8,11,12-tetraazatricyclo[8.3.0.0^2,^6]trideca-2(6),4,7,10,12-pentaen-9-yl]acetamido}ethoxy)-1-benzofuran-2-yl]formamido}-3,3-dimethylbutanoyl]-4-hydroxy-N-[(1S)-1-[4-(4-methyl-1,3-thiazol-5-yl)phenyl]ethyl]pyrrolidine-2-carboxamide], the Emax amounted to 100% and the half-maximal degradation concentration (DC50) was under 0.01 µM.

For the molecule `Cc1ncsc1-c1ccc([C@H](C)NC(=O)[C@@H]2C[C@@H](O)CN2C(=O)[C@@H](NC(=O)c2cc3ccc(O[C@H](C)CNC(=O)C[C@@H]4N=C(c5ccc(Cl)cc5)c5c(sc(C)c5C)-n5c(C)nnc54)cc3o2)C(C)(C)C)cc1` [Example 211, (2S,4R)-1-[(2S)-2-[(6-{[(2R)-1-{2-[(9S)-7-(4-chlorophenyl)-4,5,13-trimethyl-3-thia-1,8,11,12-tetraazatricyclo[8.3.0.0^2,^6]trideca-2(6),4,7,10,12-pentaen-9-yl]acetamido}propan-2-yl]oxy}-1-benzofuran-2-yl)formamido]-3,3-dimethylbutanoyl]-4-hydroxy-N-[(1S)-1-[4-(4-methyl-1,3-thiazol-5-yl)phenyl]ethyl]pyrrolidine-2-carboxamide], the Emax came out at 99% and the 50% degradation concentration (DC50) is under 0.01 µM.

As for `Cc1ncsc1-c1ccc([C@H](C)NC(=O)[C@@H]2C[C@@H](O)CN2C(=O)[C@@H](NC(=O)c2cc3ccc(O[C@H]4C[C@@H](NC(=O)C[C@@H]5N=C(c6ccc(Cl)cc6)c6c(sc(C)c6C)-n6c(C)nnc65)C4)cc3o2)C(C)(C)C)cc1` [Example 212], the Emax amounted to 95% and the DC50 was under 0.01 µM.

Consider `Cc1ncsc1-c1ccc([C@H](C)NC(=O)[C@@H]2C[C@@H](O)CN2C(=O)C(C(C)C)n2cc(-c3cc(F)cc(O[C@H](C)CNC(=O)C[C@@H]4N=C(c5ccc(Cl)cc5)c5c(sc(C)c5C)-n5c(C)nnc54)c3)cn2)cc1` (some centres unmarked) [Example 213], for which the Emax was 94.3% and the DC50 is 0.01 to 0.1 µM.

Consider `Cc1ncsc1-c1ccc([C@H](C)NC(=O)[C@@H]2C[C@@H](O)CN2C(=O)C(C(C)C)n2cc(-c3cc(F)cc(O[C@H]4C[C@@H](NC(=O)C[C@@H]5N=C(c6ccc(Cl)cc6)c6c(sc(C)c6C)-n6c(C)nnc65)C4)c3)cn2)cc1` (some centres unmarked) [Example 214], for which the Emax is 97% and the 50% degradation concentration (DC50) was in the range of 0.01 to 0.1 µM.

Consider `Cc1ncsc1-c1ccc([C@H](C)NC(=O)[C@@H]2C[C@@H](O)CN2C(=O)[C@@H](NC(=O)COc2cc(F)cc(O[C@H]3C[C@H](NC(=O)C[C@@H]4N=C(c5ccc(Cl)cc5)c5c(sc(C)c5C)-n5c(C)nnc54)C3)c2)C(C)(C)C)cc1` [Example 215], for which the Emax was determined as 98% and the DC50 is under 0.01 µM.

Consider `Cc1ncsc1-c1ccc(CNC(=O)[C@@H]2C[C@@H](O)CN2C(=O)[C@@H](C(C)C)n2cc(-c3cccc(O[C@H]4C[C@H](NC(=O)C[C@@H]5N=C(c6ccc(Cl)cc6)c6c(sc(C)c6C)-n6c(C)nnc65)C4)c3)cn2)cc1` [Example 216], for which the Emax was 14.4% and the DC50 is over 1 µM.

Regarding `Cc1ncsc1-c1ccc(CNC(=O)[C@@H]2C[C@@H](O)CN2C(=O)[C@H](C(C)C)n2cc(-c3cccc(O[C@H]4C[C@H](NC(=O)C[C@@H]5N=C(c6ccc(Cl)cc6)c6c(sc(C)c6C)-n6c(C)nnc65)C4)c3)cn2)cc1` [Example 217], the Emax stood at 91.9% and the DC50 was in the range of 0.01 to 0.1 µM.

Take `Cc1ncsc1-c1ccc([C@H](C)NC(=O)[C@@H]2C[C@@H](O)CN2C(=O)[C@@H](C(C)C)n2cc(-c3ccnc(O[C@H]4C[C@@H](NC(=O)C[C@@H]5N=C(c6ccc(Cl)cc6)c6c(sc(C)c6C)-n6c(C)nnc65)C4)c3)cn2)cc1` [Example 218, (2S,4R)-4-hydroxy-N-[(1S)-1-[4-(4-methyl-1,3-thiazol-5-yl)phenyl]ethyl]-1-[(2R)-3-methyl-2-(4-{2-1[(1,3-cis)-3-{2-[(9S)-7-(4-chlorophenyl)-4,5,13-trimethyl-3-thia-1,8,11,12-tetraazatricyclo[8.3.0.0^2,^6]trideca-2(6),4,7,10,12-pentaen-9-yl]acetamido}cyclobutoxy]pyridin-4-yl}-1H-pyrazol-1-yl)butanoyl]pyrrolidine-2-carboxamide]: the Emax was 48% and the 50% degradation concentration (DC50) was over 1 µM.

`Cc1ncsc1-c1ccc([C@H](C)NC(=O)[C@@H]2C[C@@H](O)CN2C(=O)[C@H](C(C)C)n2cc(-c3ccnc(O[C@H]4C[C@@H](NC(=O)C[C@@H]5N=C(c6ccc(Cl)cc6)c6c(sc(C)c6C)-n6c(C)nnc65)C4)c3)cn2)cc1` [Example 219, (2S,4R)-4-hydroxy-N-[(1S)-1-[4-(4-methyl-1,3-thiazol-5-yl)phenyl]ethyl]-1-[(2S)-3-methyl-2-(4-{2-[(1,3-cis)-3-{2-[(9S)-7-(4-chlorophenyl)-4,5,13-trimethyl-3-thia-1,8,11,12-tetraazatricyclo[8.3.0.0^2,^6]trideca-2(6),4,7,10,12-pentaen-9-yl]acetamido}cyclobutoxy]pyridin-4-yl}-1H-pyrazol-1-yl)butanoyl]pyrrolidine-2-carboxamide]: the Emax was found to be 95.5% and the DC50 is under 0.01 µM.
